Legend:
RON tyrosine kinase = biological target: T1, RON tyrosine kinase (Homo sapiens, UniProt Q04912); experiment: Enzyme inhibitory activity against RON tyrosine kinase (TR-FRET); assay type: biochemical; details: RON (Carna Bioscience)
T1 construct: purchased Carna Bioscience
Summary of the method: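 Recombinant RON was preincubated with compound for 15 min at RT in 50 mM HEPES pH 7.5, 10 mM MgCl2, 1 mM EGTA, 2 mM DTT, 0.01% Tween-20. Enzyme (0.4 nM), ATP (60 μM) and tyrosine peptide (400 nM) were prepared at 2×, 4× and 4× final. After 60 min at RT, EDTA/Eu-anti-phosphotyrosine stop; IC50 from 665 nm TR-FRET emission.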

[1] = tested on: cancer cell line KM12C, in which RON is activated; experiment: Cell growth inhibitory ability in RON-activated cancer cell line (MTS); assay type: cell-based; details: Homo sapiens, 48 hours, absorbance 490 nm
Summary of the method: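 KM12C cells (RON-activated, MEM with FBS) exposed to compound […] for 48 h. MTS added 24 h after treatment ended, incubated 4 h at 37° C, absorbance read at 490 nm. IC50 derived from absorbance.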

[2] = tested on: cancer cell line KM12C, in which RON is activated; experiment: Cell-killing efficacy in RON-activated cancer cell line (trypan blue); assay type: cell-based; details: for cytotoxicity at 1 µM / cytotoxicity at 5 µM: Homo sapiens, 48 hours, trypan blue, n=2, read-out: Cell death (%) Cancer cell line KM12C; for cell-killing effect (in words): as compared with the positive control
Summary of the method: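 KM12C cells seeded 1×10^5 per 60 mm^2 dish in MEM + 10% FBS, then exposed 24 h later to compound at 1 μM or 5 μM for 48 h.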

[3] = tested on: cancer cell line HT29, in which mutated RON (Δ160) is expressed; experiment: Cell-killing efficacy in RON-mutated cancer cell line HT29 (trypan blue); assay type: cell-based; details: for cell-killing effect (in words): HT29, as compared with the positive control; for cytotoxicity at 1 µM / cytotoxicity at 5 µM: Homo sapiens, HT-29, 48 hours, trypan blue, n=2, read-out: Cell death (%) Cancer cell line HT29
Procedure: (§1) Experimental Example 4: Measurement of Cell-Killing Efficacy of Example Compounds in RON-Mutated Cancer Cell Lines
(§2) Each of two colorectal cancer cell lines, that is, the cancer cell line HT29 (30038, KCLB, RPMI+10% FBS), in which mutated RON (Δ160) is expressed, and the cancer cell line SW620 (CCL-227, ATCC, RPMI+10% FBS), in which mutated RON (Δ155) is expressed, was dispensed into each 60 mm^2 dish at 1×10^5 cells. After 24 hours, the dish was treated with each of the example compounds at a concentration of 1 μM or 5 μM while performing medium exchange, and then reaction was allowed to proceed for 48 hours. After 48 hours, centrifugation was performed for 4 minutes at 1,500 rpm to collect cells and cell fluid. Thereafter, living cells and dead cells were quantified (n=2) using a trypan blue solution (15250-061, Gibco), and statistical analysis was performed using Excel-T-test. Here, as a negative control, only a solvent (0.10% DMSO) was used; and as a positive control, N-(4-(2-amino-3-chloropyridin-4-yloxy)-3-fluorophenyl)-4-ethoxy-1-(4-fluorophenyl)-2-oxo-1,2-dihydropyridine-3-carboxamide, which is the compound of Example 1 in WO 2008/058229 A1, was used.

[4] = tested on: cancer cell line SW620, in which mutated RON (Δ155) is expressed; experiment: Cell-killing efficacy in RON-mutated cancer cell line SW620 (trypan blue); assay type: cell-based; details: for cytotoxicity at 1 µM / cytotoxicity at 5 µM: Homo sapiens, SW-620, 48 hours, trypan blue, n=2, read-out: Cell death (%) Cancer cell line SW620; for cell-killing effect (in words): SW620, as compared with the positive control
Procedure: as §1, §2

T1 sequence (Q04912 25-1400): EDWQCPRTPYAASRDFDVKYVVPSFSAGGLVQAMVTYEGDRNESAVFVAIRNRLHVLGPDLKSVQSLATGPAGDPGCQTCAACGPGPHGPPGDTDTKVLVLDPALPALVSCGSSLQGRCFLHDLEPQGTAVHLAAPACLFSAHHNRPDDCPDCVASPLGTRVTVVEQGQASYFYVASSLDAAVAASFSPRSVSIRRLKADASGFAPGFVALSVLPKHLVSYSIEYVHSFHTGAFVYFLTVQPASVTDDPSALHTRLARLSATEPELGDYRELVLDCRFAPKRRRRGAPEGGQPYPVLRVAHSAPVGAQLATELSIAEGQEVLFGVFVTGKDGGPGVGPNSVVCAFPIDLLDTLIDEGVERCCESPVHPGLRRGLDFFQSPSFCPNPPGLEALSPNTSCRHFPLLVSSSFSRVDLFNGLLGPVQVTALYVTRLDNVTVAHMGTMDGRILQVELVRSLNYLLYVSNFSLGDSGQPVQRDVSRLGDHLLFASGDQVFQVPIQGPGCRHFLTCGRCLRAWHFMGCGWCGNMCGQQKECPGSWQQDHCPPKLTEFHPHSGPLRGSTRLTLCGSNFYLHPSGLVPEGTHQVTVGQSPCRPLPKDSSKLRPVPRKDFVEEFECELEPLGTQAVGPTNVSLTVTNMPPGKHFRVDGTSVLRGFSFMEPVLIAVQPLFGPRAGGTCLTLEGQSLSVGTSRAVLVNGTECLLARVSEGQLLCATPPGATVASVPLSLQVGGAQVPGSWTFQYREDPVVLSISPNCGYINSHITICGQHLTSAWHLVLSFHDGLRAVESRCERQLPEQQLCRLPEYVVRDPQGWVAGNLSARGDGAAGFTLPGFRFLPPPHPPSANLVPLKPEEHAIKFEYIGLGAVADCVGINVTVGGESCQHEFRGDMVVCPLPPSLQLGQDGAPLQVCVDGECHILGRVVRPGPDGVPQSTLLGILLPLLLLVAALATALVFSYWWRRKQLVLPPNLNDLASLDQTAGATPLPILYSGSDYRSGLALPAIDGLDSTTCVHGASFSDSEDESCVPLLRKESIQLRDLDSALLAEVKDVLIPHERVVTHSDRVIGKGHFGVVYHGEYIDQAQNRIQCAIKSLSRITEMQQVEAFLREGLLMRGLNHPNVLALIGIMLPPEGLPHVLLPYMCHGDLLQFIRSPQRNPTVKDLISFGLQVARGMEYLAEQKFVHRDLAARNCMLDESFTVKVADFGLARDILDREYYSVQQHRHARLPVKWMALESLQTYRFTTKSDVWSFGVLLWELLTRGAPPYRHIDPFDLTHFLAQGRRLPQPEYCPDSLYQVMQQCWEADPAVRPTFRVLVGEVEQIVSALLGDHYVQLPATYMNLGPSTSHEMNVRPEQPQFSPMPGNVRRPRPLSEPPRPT

| IC50 (RON tyrosine kinase) [nM] | IC50 [1] [nM] | Structure (SMILES) | cytotoxicity at 1 µM [2] [%] | cytotoxicity at 5 µM [2] [%] | cell-killing effect (in words) [2] | cell-killing effect (in words) [3] | cytotoxicity at 1 µM [3] [%] | cytotoxicity at 5 µM [3] [%] | cytotoxicity at 1 µM [4] [%] | cytotoxicity at 5 µM [4] [%] | cell-killing effect (in words) [4] |
| --- | --- | --- | --- | --- | --- | --- | --- | --- | --- | --- | --- |
| 3.23 | 8 | COc1cc2c(Oc3ccc(NC(=O)c4c5c(cn(-c6ccc(F)cc6)c4=O)CCO5)cc3F)ccnc2cc1NCCCN1CCOCC1 [Example 188, N-(3-Fluoro-4-((6-methoxy-7-((3-morpholinopropyl)amino)quinolin-4-yl)oxy)phenyl)-5-(4-fluorophenyl)-6-oxo-2,3,5,6-tetrahydrofuro[3,2-c]pyridine-7-carboxamide] | 25.4 | 57.3 | high cell-killing effect | high cell-killing effect | 28.7 | 94.4 | 26.9 | 31.6 | high cell-killing effect |
| 1.79 | 4 | COc1cc2c(Oc3ccc(NC(=O)c4c5c(cn(-c6ccc(F)cc6)c4=O)CCO5)cc3F)ccnc2cc1OCCCN1CCOCC1 [Example 76, N-(3-Fluoro-4-((6-methoxy-7-(3-morpholinopropoxy)quinolin-4-yl)oxy)phenyl)-5-(4-fluorophenyl)-6-oxo-2,3,5,6-tetrahydrofuro[3,2-c]pyridine-7-carboxamide] | 35.7 | 38.3 | high cell-killing effect | high cell-killing effect | 21.9 | 28.6 | 46.4 | 67.8 | high cell-killing effect |
| 0.66 | 0.3 | Cn1cnc(-c2cc3nccc(Oc4ccc(NC(=O)c5c6c(cn(-c7ccc(F)cc7)c5=O)CCO6)cc4F)c3s2)c1 [Example 8, N-(3-Fluoro-4-((2-(1-methyl-1H-imidazol-4-yl)thieno[3,2-b]pyridin-7-yl)oxy)phenyl)-5-(4-fluorophenyl)-6-oxo-2,3,5,6-tetrahydrofuro[3,2-c]pyridine-7-carboxamide] | 32.4 | 46.9 | – | – | 4.88 | 16.8 | 5.98 | 7.83 | – |
| 4.67 | 1 | COc1cc2nccc(Oc3ccc(NC(=O)c4c5c(cn(-c6ccc(F)cc6)c4=O)CCO5)cc3F)c2cc1NCCN1CCOCC1 [Example 185, N-(3-Fluoro-4-((7-methoxy-6-((2-morpholinoethyl)amino)quinolin-4-yl)oxy)phenyl)-5-(4-fluorophenyl)-6-oxo-2,3,5,6-tetrahydrofuro[3,2-c]pyridine-7-carboxamide] | 32.5 | 63.8 | high cell-killing effect | high cell-killing effect | 5.1 | 32.4 | 28.1 | 70.2 | high cell-killing effect |
| – | 5 | COc1cc2c(Oc3ccc(NC(=O)c4c5c(cn(-c6ccc(F)cc6)c4=O)CCO5)cc3F)ccnc2cc1OCCN1CC(F)(F)C1 [Example 124, N-(4-((7-(2-(3,3-difluoroazetidin-1-yl)ethoxy)-6-methoxyquinolin-4-yl)oxy)-3-fluorophenyl)-5-(4-fluorophenyl)-6-oxo-2,3,5,6-tetrahydrofuro[3,2-c]pyridine-7-carboxamide] | 16.3 | 57.3 | – | – | 15.7 | 62.1 | 6.2 | 98.7 | – |
| 1.99 | 5 | O=C(Nc1ccc(Oc2ccnc3cc(OCCCN4CCOCC4)ccc23)c(F)c1)c1c2c(cn(-c3ccc(F)cc3)c1=O)CCO2 [Example 158, N-(3-Fluoro-4-((7-(3-morpholinopropoxy)quinolin-4-yl)oxy)phenyl)-5-(4-fluorophenyl)-6-oxo-2,3,5,6-tetrahydrofuro[3,2-c]pyridine-7-carboxamide] | 24.1 | 37.1 | – | – | 15.2 | 30.9 | 11.6 | 92.3 | – |
| – | 2 | COc1cc2c(Oc3ccc(NC(=O)c4c5c(cn(-c6ccc(F)cc6)c4=O)CCO5)cc3F)ccnc2cc1OCCN1CCC(F)(F)C1 [Example 134, N-(4-((7-(2-(3,3-Difluoropyrrolidin-1-yl)ethoxy)-6-methoxyquinolin-4-yl)oxy)-3-fluorophenyl)-5-(4-fluorophenyl)-6-oxo-2,3,5,6-tetrahydrofuro[3,2-c]pyridine-7-carboxamide] | 35.5 | 47.4 | high cell-killing effect | high cell-killing effect | 47 | 82.2 | 76.1 | 82.8 | high cell-killing effect |
| 1.83 | 1 | COc1cc2nccc(Oc3ccc(NC(=O)c4c5c(cn(-c6ccc(F)cc6)c4=O)CCO5)cc3F)c2cc1NC(C)=O [Example 52, N-(4-((6-Acetamido-7-methoxyquinolin-4-yl)oxy)-3-fluorophenyl)-5-(4-fluorophenyl)-6-oxo-2,3,5,6-tetrahydrofuro[3,2-c]pyridine-7-carboxamide] | 10.1 | 24.7 | – | – | 10.5 | 16.1 | 13.6 | 81.8 | – |
| – | 3 | COc1cc2c(Oc3ccc(NC(=O)c4c5c(cn(-c6ccc(F)cc6)c4=O)CCO5)cc3F)ccnc2cc1OCCN1CC(C#N)C1 [Example 125] | 22.3 | 39.6 | high cell-killing effect | high cell-killing effect | 39.4 | 67.8 | 60.9 | 91.5 | high cell-killing effect |
| – | 2 | COc1cc2c(Oc3ccc(NC(=O)c4c5c(cn(-c6ccc(F)cc6)c4=O)CCO5)cc3F)ccnc2cc1OCCN1CCC(F)(F)CC1 [Example 145, N-(4-((7-(2-(4,4-Difluoropiperidin-1-yl)ethoxy)-6-methoxyquinolin-4-yl)oxy)-3-fluorophenyl)-5-(4-fluorophenyl)-6-oxo-2,3,5,6-tetrahydrofuro[3,2-c]pyridine-7-carboxamide] | 25.7 | 45.4 | – | – | 16.4 | 81.4 | 11 | 87.1 | – |
| 0.92 | 2 | COc1cc2c(Oc3ccc(NC(=O)c4c5c(cn(-c6ccc(F)cc6)c4=O)CCO5)cc3F)ccnc2cc1NC(C)=O [Example 184, N-(4-((7-Acetamido-6-methoxyquinolin-4-yl)oxy)-3-fluorophenyl)-5-(4-fluorophenyl)-6-oxo-2,3,5,6-tetrahydrofuro[3,2-c]pyridine-7-carboxamide] | 13.8 | 54.2 | – | – | 7.9 | 23.2 | 5 | 29.8 | – |
| – | 133 | CCOc1ccn(-c2ccc(F)cc2)c(=O)c1C(=O)Nc1ccc(Oc2ccnc(N)c2Cl)c(F)c1 [Positive control, N-(4-(2-amino-3-chloropyridin-4-yloxy)-3-fluorophenyl)-4-ethoxy-1-(4-fluorophenyl)-2-oxo-1,2-dihydropyridine-3-carboxamide, reference compound] | 9.94 | 12.8 | – | – | 10.4 | 16.1 | 3.46 | 9.28 | – |

Source: patent US20220235064A1 (WELLMARKER BIO CO., LTD., priority 2019, published 2022)
